In patent US8604217B2, “Compound, a process for its preparation, a pharmaceutical composition, use of a compound, a method for modulating or regulating serine/threonine kinases and a serine/threonine kinases modulating agent” (Selvita S.A., priority 2009, dated 2013):
Read-outs that look alike come from different tables or passages of the source.

Tests used:
c-MYC = experiment: In vitro inhibition of protein phosphorylation, Western blot in MV4-11 cells; assay type: cell-based, human; details: for IC50: Homo sapiens, MV4-11, MV411 cells, read-out: calculated cellular IC50 for biomarker inhibition, c-MYC
Description: The inventors have investigated the efficacy of PIM-1 kinase inhibition by compound 20 on MV4-11 cells 4 h and 24 h after the treatment. The efficacy of PIM-1 inhibition was evaluated basing on the changes in the expression and phosphorylation levels of its downstream target proteins, using Western blot (FIG. 1). Sunitinib was used as a positive control. After densitometric quantification of the obtained results, cellular IC50 was assessed (Table 6). […] PIM-1 and tubulin protein levels were assessed as controls.

CDK5/p25(h) = CDK5/p25(h) (Homo sapiens (Human), UniProt Q00535); experiment: KinaseProfiler kinase panel; assay type: biochemical
PKG1β(h) = PKG1β(h) (Homo sapiens (Human), UniProt Q13976); experiment: KinaseProfiler kinase panel; assay type: biochemical
PKG1α(h) = PKG1α(h) (Homo sapiens (Human), UniProt Q13976); experiment: KinaseProfiler kinase panel; assay type: biochemical
PIM-2(h) = PIM-2(h) (Homo sapiens (Human), UniProt Q9P1W9); experiment: KinaseProfiler kinase panel; assay type: biochemical
TRKA(h) = TRKA(h) (Homo sapiens (Human), UniProt P04629); experiment: KinaseProfiler kinase panel; assay type: biochemical
Axl(h) = Axl(h) (Homo sapiens (Human), UniProt P30530); experiment: KinaseProfiler kinase panel; assay type: biochemical
cKit(V654A)(h) = cKit(V654A)(h) (Homo sapiens (Human), UniProt P10721, V654A); experiment: KinaseProfiler kinase panel; assay type: biochemical
TRKB(h) = TRKB(h) (Homo sapiens (Human), UniProt Q16620); experiment: KinaseProfiler kinase panel; assay type: biochemical
DYRK2(h) = DYRK2(h) (Homo sapiens (Human), UniProt Q92630); experiment: KinaseProfiler kinase panel; assay type: biochemical
PRK2(h) = PRK2(h) (Homo sapiens (Human), UniProt Q16513); experiment: KinaseProfiler kinase panel; assay type: biochemical
Chain of PRK2(h) (Q16513 whole entry): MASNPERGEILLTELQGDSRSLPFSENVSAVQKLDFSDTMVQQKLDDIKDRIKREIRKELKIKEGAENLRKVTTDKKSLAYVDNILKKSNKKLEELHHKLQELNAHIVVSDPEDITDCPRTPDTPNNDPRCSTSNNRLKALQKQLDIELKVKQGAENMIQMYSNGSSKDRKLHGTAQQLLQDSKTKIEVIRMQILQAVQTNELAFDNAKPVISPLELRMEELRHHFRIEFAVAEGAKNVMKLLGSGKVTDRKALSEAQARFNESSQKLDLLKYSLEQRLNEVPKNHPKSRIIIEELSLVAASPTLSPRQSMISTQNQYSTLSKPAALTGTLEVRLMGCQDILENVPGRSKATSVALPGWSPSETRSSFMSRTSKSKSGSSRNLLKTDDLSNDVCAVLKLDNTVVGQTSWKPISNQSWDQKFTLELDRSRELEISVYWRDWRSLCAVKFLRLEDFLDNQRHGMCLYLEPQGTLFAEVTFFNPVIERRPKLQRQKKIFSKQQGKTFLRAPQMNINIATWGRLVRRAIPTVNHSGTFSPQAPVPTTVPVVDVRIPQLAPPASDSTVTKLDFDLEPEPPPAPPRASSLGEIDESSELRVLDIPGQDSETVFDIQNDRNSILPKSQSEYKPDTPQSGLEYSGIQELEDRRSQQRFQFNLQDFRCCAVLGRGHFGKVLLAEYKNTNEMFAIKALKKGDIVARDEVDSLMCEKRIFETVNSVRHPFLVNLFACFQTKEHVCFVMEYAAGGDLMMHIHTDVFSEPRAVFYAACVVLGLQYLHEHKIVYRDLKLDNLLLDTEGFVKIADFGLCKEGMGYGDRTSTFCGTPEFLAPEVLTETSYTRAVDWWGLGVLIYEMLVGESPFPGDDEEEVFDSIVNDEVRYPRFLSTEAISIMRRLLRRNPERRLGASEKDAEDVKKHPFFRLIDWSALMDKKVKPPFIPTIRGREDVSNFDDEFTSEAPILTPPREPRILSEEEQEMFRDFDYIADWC

Rsk1(h) = Rsk1(h) (Homo sapiens (Human), UniProt Q15418); experiment: KinaseProfiler kinase panel; assay type: biochemical
PKD2(h) = PKD2(h) (Homo sapiens (Human), UniProt Q9BZL6); experiment: KinaseProfiler kinase panel; assay type: biochemical
Lyn(h) = Lyn(h) (Homo sapiens (Human), UniProt P07948); experiment: KinaseProfiler kinase panel; assay type: biochemical
Met(Y1248C)(h) = Met(Y1248C)(h) (Homo sapiens (Human), UniProt P08581, Y1248C); experiment: KinaseProfiler kinase panel; assay type: biochemical
TAO2(h) = TAO2(h) (Homo sapiens (Human), UniProt Q9UL54); experiment: KinaseProfiler kinase panel; assay type: biochemical
PAK6(h) = PAK6(h) (Homo sapiens (Human), UniProt Q9NQU5); experiment: KinaseProfiler kinase panel; assay type: biochemical
EphB1(h) = EphB1(h) (Homo sapiens (Human), UniProt P54762); experiment: KinaseProfiler kinase panel; assay type: biochemical
MSSK1(h) = MSSK1(h) (Homo sapiens (Human), UniProt Q9UPE1); experiment: KinaseProfiler kinase panel; assay type: biochemical
CSK(h) = CSK(h) (Homo sapiens (Human), UniProt P41240); experiment: KinaseProfiler kinase panel; assay type: biochemical
EphA7(h) = EphA7(h) (Homo sapiens (Human), UniProt Q15375); experiment: KinaseProfiler kinase panel; assay type: biochemical
MARK1(h) = MARK1(h) (Homo sapiens (Human), UniProt Q9P0L2); experiment: KinaseProfiler kinase panel; assay type: biochemical
NEK2(h) = NEK2(h) (Homo sapiens (Human), UniProt P51955); experiment: KinaseProfiler kinase panel; assay type: biochemical
MAPK1(h) = MAPK1(h) (Homo sapiens (Human), UniProt P27361); experiment: KinaseProfiler kinase panel; assay type: biochemical
Chain of MAPK1(h) (P27361 whole entry): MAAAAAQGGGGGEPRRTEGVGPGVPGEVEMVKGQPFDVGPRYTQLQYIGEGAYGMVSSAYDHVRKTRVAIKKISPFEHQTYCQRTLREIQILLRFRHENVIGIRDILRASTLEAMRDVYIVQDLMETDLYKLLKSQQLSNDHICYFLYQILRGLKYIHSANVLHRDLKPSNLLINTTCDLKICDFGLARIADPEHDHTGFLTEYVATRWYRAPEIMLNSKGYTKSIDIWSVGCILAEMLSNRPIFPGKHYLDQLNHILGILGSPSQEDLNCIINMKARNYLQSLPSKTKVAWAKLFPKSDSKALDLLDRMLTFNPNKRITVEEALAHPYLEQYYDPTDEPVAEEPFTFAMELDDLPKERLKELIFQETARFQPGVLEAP

MRCKα(h) = MRCKα(h) (Homo sapiens (Human), UniProt Q5VT25); experiment: KinaseProfiler kinase panel; assay type: biochemical
Pyk2(h) = Pyk2(h) (Homo sapiens (Human), UniProt Q14289); experiment: KinaseProfiler kinase panel; assay type: biochemical
PKCβII(h) = PKCβII(h) (Homo sapiens (Human), UniProt P05771); experiment: KinaseProfiler kinase panel; assay type: biochemical
PAK3(h) = PAK3(h) (Homo sapiens (Human), UniProt O75914); experiment: KinaseProfiler kinase panel; assay type: biochemical
DCAMKL2(h) = DCAMKL2(h) (Homo sapiens (Human), UniProt Q8N568); experiment: KinaseProfiler kinase panel; assay type: biochemical
MAPKAP-K2(h) = MAPKAP-K2(h) (Homo sapiens (Human), UniProt P49137); experiment: KinaseProfiler kinase panel; assay type: biochemical
Chain of MAPKAP-K2(h) (P49137 whole entry): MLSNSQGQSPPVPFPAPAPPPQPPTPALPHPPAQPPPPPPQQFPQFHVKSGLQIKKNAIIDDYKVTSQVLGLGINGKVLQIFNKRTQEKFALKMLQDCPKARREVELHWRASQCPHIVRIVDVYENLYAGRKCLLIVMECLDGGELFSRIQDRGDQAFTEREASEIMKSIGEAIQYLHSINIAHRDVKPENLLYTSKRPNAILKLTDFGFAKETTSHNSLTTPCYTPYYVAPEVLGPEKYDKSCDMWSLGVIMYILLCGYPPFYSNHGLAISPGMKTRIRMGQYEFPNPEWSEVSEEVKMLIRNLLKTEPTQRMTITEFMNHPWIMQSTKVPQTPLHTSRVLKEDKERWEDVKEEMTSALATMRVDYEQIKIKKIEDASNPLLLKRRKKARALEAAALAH

Ros(h) = Ros(h) (Homo sapiens (Human), UniProt P08922); experiment: KinaseProfiler kinase panel; assay type: biochemical
Chain of Ros(h) (P08922 28-2347): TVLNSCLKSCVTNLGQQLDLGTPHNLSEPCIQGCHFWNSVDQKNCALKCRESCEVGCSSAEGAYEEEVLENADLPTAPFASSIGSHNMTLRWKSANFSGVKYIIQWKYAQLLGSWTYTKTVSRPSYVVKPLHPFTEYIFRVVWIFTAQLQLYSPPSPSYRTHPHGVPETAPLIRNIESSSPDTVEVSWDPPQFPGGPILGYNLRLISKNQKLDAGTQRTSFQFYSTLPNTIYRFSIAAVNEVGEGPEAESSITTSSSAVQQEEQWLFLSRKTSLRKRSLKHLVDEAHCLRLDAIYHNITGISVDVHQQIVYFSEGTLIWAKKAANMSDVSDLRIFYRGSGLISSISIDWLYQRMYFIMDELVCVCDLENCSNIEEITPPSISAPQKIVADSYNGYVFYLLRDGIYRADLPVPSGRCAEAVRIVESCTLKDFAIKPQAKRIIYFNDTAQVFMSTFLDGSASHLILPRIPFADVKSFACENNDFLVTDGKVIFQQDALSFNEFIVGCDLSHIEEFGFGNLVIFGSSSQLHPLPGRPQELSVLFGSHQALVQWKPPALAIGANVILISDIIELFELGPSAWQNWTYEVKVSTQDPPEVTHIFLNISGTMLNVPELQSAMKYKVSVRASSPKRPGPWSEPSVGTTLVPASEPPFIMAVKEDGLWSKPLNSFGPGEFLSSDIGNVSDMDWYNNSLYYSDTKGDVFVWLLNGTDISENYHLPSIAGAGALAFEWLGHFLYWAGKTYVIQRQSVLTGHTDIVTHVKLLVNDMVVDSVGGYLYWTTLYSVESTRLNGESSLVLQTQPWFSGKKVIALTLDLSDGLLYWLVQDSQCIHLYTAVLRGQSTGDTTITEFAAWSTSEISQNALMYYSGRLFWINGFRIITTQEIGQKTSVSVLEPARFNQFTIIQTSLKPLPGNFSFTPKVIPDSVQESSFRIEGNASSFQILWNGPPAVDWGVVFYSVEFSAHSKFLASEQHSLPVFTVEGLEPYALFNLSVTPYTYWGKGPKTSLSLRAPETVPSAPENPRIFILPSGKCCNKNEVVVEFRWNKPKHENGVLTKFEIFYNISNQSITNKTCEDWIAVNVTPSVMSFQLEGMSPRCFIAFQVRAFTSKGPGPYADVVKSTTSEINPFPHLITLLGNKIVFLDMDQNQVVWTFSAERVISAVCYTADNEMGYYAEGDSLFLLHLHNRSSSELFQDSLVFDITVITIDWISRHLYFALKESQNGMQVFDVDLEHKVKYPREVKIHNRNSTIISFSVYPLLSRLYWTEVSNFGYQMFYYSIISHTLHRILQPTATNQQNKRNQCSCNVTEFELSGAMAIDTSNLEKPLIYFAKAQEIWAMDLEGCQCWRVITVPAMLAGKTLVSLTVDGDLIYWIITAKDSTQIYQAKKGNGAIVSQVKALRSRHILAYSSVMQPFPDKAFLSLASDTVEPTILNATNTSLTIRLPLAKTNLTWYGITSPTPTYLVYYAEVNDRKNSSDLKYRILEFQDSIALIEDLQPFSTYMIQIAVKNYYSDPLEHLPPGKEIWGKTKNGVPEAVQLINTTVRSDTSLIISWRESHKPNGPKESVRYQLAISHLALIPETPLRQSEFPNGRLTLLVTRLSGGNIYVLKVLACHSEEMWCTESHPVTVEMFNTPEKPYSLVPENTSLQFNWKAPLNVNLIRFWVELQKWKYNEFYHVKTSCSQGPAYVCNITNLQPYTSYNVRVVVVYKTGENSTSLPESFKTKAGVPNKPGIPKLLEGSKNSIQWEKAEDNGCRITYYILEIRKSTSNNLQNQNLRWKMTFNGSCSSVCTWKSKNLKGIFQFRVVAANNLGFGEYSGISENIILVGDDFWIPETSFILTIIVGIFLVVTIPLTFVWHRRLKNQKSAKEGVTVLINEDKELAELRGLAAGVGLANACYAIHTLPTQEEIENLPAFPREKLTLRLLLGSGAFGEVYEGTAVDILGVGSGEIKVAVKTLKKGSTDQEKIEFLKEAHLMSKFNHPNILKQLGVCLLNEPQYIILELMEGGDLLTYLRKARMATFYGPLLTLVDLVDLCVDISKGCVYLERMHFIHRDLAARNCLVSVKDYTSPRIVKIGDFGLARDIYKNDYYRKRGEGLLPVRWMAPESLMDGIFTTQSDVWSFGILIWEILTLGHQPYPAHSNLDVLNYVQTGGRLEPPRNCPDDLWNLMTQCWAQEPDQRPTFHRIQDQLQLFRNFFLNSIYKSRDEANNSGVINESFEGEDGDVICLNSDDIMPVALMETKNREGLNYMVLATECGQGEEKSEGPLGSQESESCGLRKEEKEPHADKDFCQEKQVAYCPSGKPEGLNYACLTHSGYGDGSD

EphA2(h) = EphA2(h) (Homo sapiens (Human), UniProt P29317); experiment: KinaseProfiler kinase panel; assay type: biochemical
Chain of EphA2(h) (P29317 24-976): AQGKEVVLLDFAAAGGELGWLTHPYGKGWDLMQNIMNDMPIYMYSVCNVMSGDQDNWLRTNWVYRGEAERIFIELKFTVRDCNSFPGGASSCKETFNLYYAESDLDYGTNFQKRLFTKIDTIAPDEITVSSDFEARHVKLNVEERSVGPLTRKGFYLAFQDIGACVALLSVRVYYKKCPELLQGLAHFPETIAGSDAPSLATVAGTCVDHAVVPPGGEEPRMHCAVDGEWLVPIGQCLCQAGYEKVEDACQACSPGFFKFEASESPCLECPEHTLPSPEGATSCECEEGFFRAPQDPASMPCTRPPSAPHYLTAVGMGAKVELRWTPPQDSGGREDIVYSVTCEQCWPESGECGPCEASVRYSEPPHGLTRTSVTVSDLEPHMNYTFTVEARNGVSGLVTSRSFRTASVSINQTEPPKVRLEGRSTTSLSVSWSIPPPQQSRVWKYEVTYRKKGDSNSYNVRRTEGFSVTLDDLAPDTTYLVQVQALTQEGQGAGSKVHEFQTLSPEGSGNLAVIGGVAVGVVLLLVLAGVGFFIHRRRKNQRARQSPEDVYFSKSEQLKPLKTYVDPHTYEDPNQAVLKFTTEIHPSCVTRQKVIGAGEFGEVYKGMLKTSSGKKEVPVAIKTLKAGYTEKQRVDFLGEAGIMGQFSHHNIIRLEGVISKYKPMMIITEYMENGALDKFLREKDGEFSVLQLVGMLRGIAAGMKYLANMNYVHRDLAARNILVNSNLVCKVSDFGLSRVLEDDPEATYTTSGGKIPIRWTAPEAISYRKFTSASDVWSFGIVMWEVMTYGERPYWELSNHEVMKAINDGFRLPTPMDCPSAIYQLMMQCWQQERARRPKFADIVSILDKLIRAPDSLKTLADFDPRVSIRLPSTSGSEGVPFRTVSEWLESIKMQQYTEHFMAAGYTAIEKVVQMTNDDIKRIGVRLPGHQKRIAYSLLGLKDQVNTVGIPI

EphB2(h) = EphB2(h) (Homo sapiens (Human), UniProt P29323); experiment: KinaseProfiler kinase panel; assay type: biochemical
eEF-2K(h) = eEF-2K(h) (Homo sapiens (Human), UniProt O00418); experiment: KinaseProfiler kinase panel; assay type: biochemical
PDK1(h) = PDK1(h) (Homo sapiens (Human), UniProt O15530); experiment: KinaseProfiler kinase panel; assay type: biochemical
cKit(h) = cKit(h) (Homo sapiens (Human), UniProt P10721); experiment: KinaseProfiler kinase panel; assay type: biochemical
JAK2(h) = JAK2(h) (Homo sapiens (Human), UniProt O60674); experiment: KinaseProfiler kinase panel; assay type: biochemical

What does the source list for `Brc1c(Br)c(Br)c2[nH]c(N3CCNCC3)nc2c1Br` [Compound 20, 4,5,6,7-tetrabromo-2-(piperazin-1-yl)-1H-benzo[d]imidazole]?
IC50 (c-MYC; 4 h treatment): 0.89 µM; IC50 (c-MYC; 24 h treatment): 2.03 µM; inhibition of c-MYC (Western blot) (c-MYC; MV4-11 cells, after 4 h and 24 h): dose dependent inhibition

With `CCn1c(N2CCNCC2)nc2c(Br)c(Br)c(Br)c(Br)c21` [Compound 416, 4,5,6,7-tetrabromo-1-ethyl-2-(piperazin-1-yl)-1H-benzo[d]imidazole] as the compound, how does the remaining activity at 1 µM (CDK5/p25(h)) read?
Its remaining activity at 1 µM is 1%.

What about the remaining activity at 1 µM (PKG1β(h)) of the same compound?
The remaining activity at 1 µM was 5%.

What about the remaining activity at 1 µM (PKG1α(h)) of the same compound?
The remaining activity at 1 µM was 7%.

What about the remaining activity at 1 µM (PIM-2(h)) of the same compound?
The remaining activity at 1 µM was 10%.

And the remaining activity at 1 µM (TRKA(h))?
Its remaining activity at 1 µM is 35%.

What about the remaining activity at 1 µM (Axl(h)) of the same compound?
Its remaining activity at 1 µM is 36%.

What about the remaining activity at 1 µM (cKit(V654A)(h)) of the same compound?
Its remaining activity at 1 µM is 36%.

What about the remaining activity at 1 µM (TRKB(h)) of the same compound?
The remaining activity at 1 µM was 37%.

What about the remaining activity at 1 µM (DYRK2(h)) of the same compound?
Its remaining activity at 1 µM is 45%.

And the remaining activity at 1 µM (PRK2(h))?
The remaining activity at 1 µM was 56%.

What about the remaining activity at 1 µM (Rsk1(h)) of the same compound?
The remaining activity at 1 µM was 56%.

What about the remaining activity at 1 µM (PKD2(h)) of the same compound?
The remaining activity at 1 µM was 58%.

What about the remaining activity at 1 µM (Lyn(h)) of the same compound?
The remaining activity at 1 µM was 65%.

What about the remaining activity at 1 µM (Met(Y1248C)(h)) of the same compound?
The remaining activity at 1 µM was 73%.

What about the remaining activity at 1 µM (TAO2(h)) of the same compound?
The remaining activity at 1 µM was 82%.

And the remaining activity at 1 µM (PAK6(h))?
Its remaining activity at 1 µM is 85%.

What about the remaining activity at 1 µM (EphB1(h)) of the same compound?
The remaining activity at 1 µM was 87%.

What about the remaining activity at 1 µM (MSSK1(h)) of the same compound?
Its remaining activity at 1 µM is 87%.

And the remaining activity at 1 µM (CSK(h))?
The remaining activity at 1 µM was 91%.

What about the remaining activity at 1 µM (EphA7(h)) of the same compound?
Its remaining activity at 1 µM is 91%.

What about the remaining activity at 1 µM (MARK1(h)) of the same compound?
The remaining activity at 1 µM was 91%.

And the remaining activity at 1 µM (NEK2(h))?
Its remaining activity at 1 µM is 91%.

What about the remaining activity at 1 µM (MAPK1(h)) of the same compound?
Its remaining activity at 1 µM is 94%.

What about the remaining activity at 1 µM (MRCKα(h)) of the same compound?
Its remaining activity at 1 µM is 96%.

What about the remaining activity at 1 µM (Pyk2(h)) of the same compound?
Its remaining activity at 1 µM is 97%.

And the remaining activity at 1 µM (PKCβII(h))?
The remaining activity at 1 µM was 98%.

What about the remaining activity at 1 µM (PAK3(h)) of the same compound?
The remaining activity at 1 µM was 100%.

And the remaining activity at 1 µM (DCAMKL2(h))?
The remaining activity at 1 µM was 101%.

What about the remaining activity at 1 µM (MAPKAP-K2(h)) of the same compound?
The remaining activity at 1 µM was 101%.

And the remaining activity at 1 µM (Ros(h))?
Its remaining activity at 1 µM is 104%.

And the remaining activity at 1 µM (EphA2(h))?
Its remaining activity at 1 µM is 106%.

What about the remaining activity at 1 µM (EphB2(h)) of the same compound?
The remaining activity at 1 µM was 106%.

What about the remaining activity at 1 µM (eEF-2K(h)) of the same compound?
Its remaining activity at 1 µM is 107%.

And the remaining activity at 1 µM (PDK1(h))?
Its remaining activity at 1 µM is 109%.

And the remaining activity at 1 µM (cKit(h))?
The remaining activity at 1 µM was 121%.

And the remaining activity at 1 µM (JAK2(h))?
The remaining activity at 1 µM was 121%.
